Test results reported in patent US10426757B2, “Compositions and methods for promoting intestinal stem cell and/or non-stem progenitor cell function” (Whitehead Institute for Biomedical Research, priority 2014, dated 2019).
Entries after “also recorded” stand apart in the source; their conditions may differ.

How the values were obtained:
[1] = test system: Apc-null Lgr5-GFP^hi ISCs and Lgr5-GFP^low progenitors; assay: Orthotopic transplantation of Apc-null cells into recipient colons; assay type: in vivo, mouse; conditions: 10,000 cells from GW501516-treated mice; for adenoma initiation by transplanted Apc-null Lgr5-GFP^low progenitors: vehicle 0±0
Source text: (§1) To test this possibility, the present inventors generated Apc^loxp/loxp; Lgr5-EGFP-IRES-CreERT2 mice to assess whether pharmacological PPAR-δ activation modifies the tumorigenic capacity of the Lgr5-GFP^low progenitors. Injection with tamoxifen leads to Apc-loss in the Lgr5-GFP^hi ISCs, which in turn generate Apc-null Lgr5-GFP^low progenitors. Four days after tamoxifen administration, we flow sorted Apc-null Lgr5-GFP^hi ISCs and Lgr5-GFP^low progenitors from vehicle and PPAR-δ agonist treated mice to assess the tumor-forming potential of these populations using separate assays (FIG. 7B): first, we examined their ability to give rise to adenomatous organoids in culture; and second, we interrogated the ability of 10,000 freshly sorted stem and progenitor cells to initiate adenomatous lesions in syngeneic recipient colons.
Apc^loxp/loxp; Lgr5-EGFP-IRES-CreERT2 mice were treated with vehicle or GW501516 for one month, and then injected with two doses of tamoxifen I.P. Four days later, Apc-null Lgr5-GFP^hi ISCs and Lgr5-GFP^low progenitors were sorted by flow cytometry, as described above. For primary cell transplantations, 10,000 Apc-null Lgr5-GFP^hi ISCs and Lgr5-GFP^low progenitors were resuspended into 90% crypt culture media (as described) and 10% Matrigel™, then transplanted into the colonic lamina propria of C57BL/6 recipient mice by optical colonoscopy using an injection needle (Hamilton Inc., part number 7750-21, 30 gauge, Kel-F Hub NDL, 14 inches length, 45 degree bevel) and specialized syringe (Hamilton Inc, part number 81242, 500 μL, Model 1750 LT Threaded Plunger). Optical colonoscopy was performed using a Karl Storz Image 1 HD Camera System, Image 1 HUB CCU, 175 Watt Xenon Light Source, and Richard Wolf 1.9 mm/9.5 Fr Integrated Telescope (part number 8626.431). Four injections were performed per mouse. Mice then underwent colonoscopy four weeks later to assess tumor formation. Colonoscopy videos and images were saved for offline analysis. […]

[2] = test system: Lgr5-GFP^hi ISCs and Lgr5-GFP^low progenitors; assay: Flow cytometry enumeration of Lgr5-GFP^hi ISCs and Lgr5-GFP^low progenitors in Lgr5-EGFP-IRES-CreERT2 mice; assay type: in vivo, mouse; conditions: GW501516 4 mg/kg daily IP, 2-4 weeks, vs vehicle
Source text: Mice were housed in the Unit for Laboratory Animal Medicine at the Whitehead Institute for Biomedical Research and Koch Institute for Integrative Cancer Research. Lgr5-EGFP-IRES-CreERT2 mice (strain name: B6.129P2-Lgr5^tm1(cre/ERT2)Cle/J, stock number 008875), and Rosa26-lacZ mice (strain name: B6.129S4-Gt(ROSA)26Sor^tm1Sor/J, stock number 003474) were obtained from the Jackson Laboratory. […] Control mice were age-matched and fed normal chow ad libitum. GW501516 (Enzo) was reconstituted in DMSO at 4.5 mg ml^−1 and diluted 1:10 in a solution of 5% PEG400 (Hampton Research), 5% Tween80 (Sigma), 90% H2O for a daily intraperitoneal injection of 4 mg/kg.
As previously reported and briefly summarized here, small intestines were removed, washed with cold PBS−/−, opened laterally and cut into 3-5 mm fragments. Pieces were washed multiple times with cold PBS−/− until clean, washed 2-3 with PBS−/−/EDTA (10 mM), and incubated on ice for 90-120 minutes while mixing at 30-minute intervals. Crypts were then mechanically separated from the connective tissue by shaking, and filtered through a 70-μm mesh into a 50-ml conical tube to remove villous material and tissue fragments. At this point the suspension was mainly composed of crypts. […] For ISC isolation, the crypt suspensions were dissociated to individual cells with TrypLE Express (Invitrogen). Cell labeling consisted of an antibody cocktail comprising CD45-PE (eBioscience, 30-F1 1), CD31-PE (Biolegend, Mecl3.3), Ter119-PE (Biolegend, Ter119), CD24-Pacific Blue (Biolegend, M1/69), CD117-APC/Cy7 (Biolegend, 2BS), and EPCAM-APC (eBioscience, G8.8). ISCs were isolated as Lgr5-EGFP^hiEpcam^+CD24^low/−CD31^−Ter119 CD45^−7-AAD^−. EGFP^low progenitors were isolated as EGFP^lowEpcam^+CD24^low/−CD31^−Ter119^−CD45^−7-AAD^−, and Paneth cells were isolated as CD24^hiSidescatter^hiLgr5-EGFP^−Epcam^+CD31^−Ter119^−CD45^−7-AAD^− with a BD FACS Aria II SORP cell sorter into supplemented crypt culture medium for culture. Dead cells were excluded from the analysis with the viability dye 7-AAD (Life Technologies).

[3] = test system: Apc-null Lgr5-GFP^hi ISCs and Lgr5-GFP^low progenitors; assay: In vitro adenomatous organoid formation by Apc-null ISCs and progenitors; assay type: cell-based, mouse
Source text: as §1
(§2) Isolated ISCs or progenitor cells were centrifuged for 5 minutes at 250 g, re-suspended in the appropriate volume of crypt culture medium (500-1,000 cells μl^−1), then seeded onto 25-30 μl Matrigel™ (Corning 356231 growth factor reduced) containing 1 μM jagged (Ana-Spec) in a flat bottom 48-well plate (Corning 3548). Alternatively, ISCs and Paneth cells were mixed after sorting in a 1:1 ratio, centrifuged, and then seeded onto Matrigel™. The Matrigel™ and cells were allowed to solidify before adding 300 μl of crypt culture medium. The crypt media was changed every second or third day. Organoid bodies were quantified on days 3, 7 and 10 of culture, unless otherwise specified. With respect to the study results presented in FIGS. 14-16, organoid bodies were quantified on day 3-4. In secondary experiments, individual primary organoids were mechanically dissociated and re-plated, or organoids were dissociated for 10 minutes in TrypLE Express at 32° C., re-suspended with SMEM (Life Technologies), centrifuged and re-suspended in cold SMEM with viability dye 7-AAD. Live cells were sorted and seeded onto Matrigel™ as previously described.

Lgr5-GFP^low progenitors = assay: Organoid formation by sorted Lgr5-GFP^low progenitors; assay type: cell-based, mouse; conditions: progenitors from GW501516-treated mice, vs vehicle
Experimental: as §2

[4] = test system: crypt base columnar cells and transit-amplifying cells; assay: BrdU incorporation into ISCs and TA-cells; assay type: in vivo, mouse; conditions: GW501516-treated mice, 4 hours after BrdU pulse
Experimental: Mice were housed in the Unit for Laboratory Animal Medicine at the Whitehead Institute for Biomedical Research and Koch Institute for Integrative Cancer Research. Lgr5-EGFP-IRES-CreERT2 mice (strain name: […] B6.129S4-Gt(ROSA)26Sor^tm1Sor/J, stock number 003474) were obtained from the Jackson Laboratory. […] Control mice were age-matched and fed normal chow ad libitum. GW501516 (Enzo) was reconstituted in DMSO at 4.5 mg ml^-1 and diluted 1:10 in a solution of 5% PEG400 (Hampton Research), 5% Tween80 (Sigma), 90% H2O for a daily intraperitoneal injection of 4 mg/kg. Apc exon 14 was excised by tamoxifen suspended in sunflower seed oil (Spectrum […]) at a concentration of 10 mg ml^-1, and 250 μl per 25 g of body weight was administered by intraperitoneal injection to mice twice over 4 days before harvesting tissue. BrdU was prepared at 10 mg ml^-1 in PBS, passed through 0.22 μm filter and injected at 100 mg kg^-1. As previously described^5, tissues were fixed in 10% formalin, paraffin embedded and sectioned. Antigen retrieval was performed with Borg Decloaker RTU solution (Biocare Medical) in a pressurized Decloaking Chamber (Biocare Medical) for 3 minutes. […]

`Cc1cc(SCc2sc(-c3ccc(C(F)(F)F)cc3)nc2C)ccc1OCC(=O)O` [GW501516, 2-[2-methyl-4-[[4-methyl-2-[4-(trifluoromethyl)phenyl]-1,3-thiazol-5-yl]methylsulfanyl]phenoxy]acetic acid] was tested, and the “adenoma initiation by transplanted Apc-null Lgr5-GFP^low progenitors” value [1] was “initiated tumors”, the “adenoma initiation by transplanted Apc-null Lgr5-GFP^low progenitors” value ([1]; listed as PPAR-δ agonist) was 0.58±0.16 and the “intestinal adenoma formation by transplanted Apc-null Lgr5-GFP^hi ISCs” value ([1]; vehicle 0.67±0.13, listed as PPAR-δ agonist) was 0.61±0.19. The “number of Lgr5-GFP^low progenitors” value ([2]; 4 mg/kg) was “not in progenitor cells; also recorded: no effect”, the “number/frequency of Lgr5-GFP^hi ISCs” value ([2]; 4 mg/kg) was “augmented; also recorded: selective increase; also recorded: doubled the number” and the “number/frequency of Lgr5-GFP^hi ISCs” value ([2]; listed as GW501515) was “sufficient to enhance”. The “in vitro adenoma-initiating potential of Apc-null Lgr5-GFP^low progenitors” value ([3]; GW501516-treated mice, EN media, vehicle 0.04±0.05) was 0.18±0.07, the “in vitro adenomatous organoid-forming potential of Apc-null Lgr5-GFP^hi ISCs” value ([3]; GW501516-treated vs vehicle) was “not altered” and the “increase of in vitro adenomatous organoid forming potential of Apc-null Lgr5-GFP^low progenitors” value ([3]; GW501516-treated vs vehicle, EN media) was “four-fold”. The “in vitro adenomatous organoid-forming potential of Apc-null Lgr5-GFP^hi ISCs” value ([3]; GW501516-treated vs vehicle, listed as PPAR-δ agonist) was “as clonogenic as those from vehicle controls”, the “organoid-initiating capacity of Lgr5-GFP^low progenitors” value (from here on “organoid-initiating capacity”) (Lgr5-GFP^low progenitors) was “possess the potential to autonomously form organoid bodies; also recorded: conferred organoid-initiating capacity” and the “organoid-initiating capacity” value (Lgr5-GFP^low progenitors; listed as GW501515) was “sufficient to enhance”. The “organoid-initiating capacity” value (Lgr5-GFP^low progenitors; listed as PPAR-δ agonist) was “capable of forming organoids” and the “proliferation of CBC cells and transit-amplifying cells” value [4] was “augmented; also recorded: enhanced the proliferation”.
